Assay results published in PubChem BioAssay (NCI).
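GI50 = concentration required for 50% inhibition of growth. The concentration for full growth arrest is given as TGI.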

How the values were obtained:
Assay in all cases: NCI anticancer screen, dose series, 384-well format
[1] = test system: SN12C renal
[2] = test system: BT-549 breast
[3] = test system: MDA-MB-435 melanoma
[4] = test system: UACC-257 melanoma
[5] = test system: OVCAR-3 ovarian
[6] = test system: SNB-75 CNS
[7] = test system: RPMI-8226 leukemia
[8] = test system: LOX IMVI melanoma
[9] = test system: NCI-H226 lung
[10] = test system: KM12 colon
[11] = test system: HOP-92 NSCLC
[12] = test system: M14 melanoma
[13] = test system: CAKI-1 renal
[14] = test system: U251 glioblastoma
[15] = test system: EKVX NSCLC
[16] = test system: SF-268 CNS
[17] = test system: MALME-3M melanoma
[18] = test system: NCI-H23 lung
[19] = test system: SW-620 colon
[20] = test system: IGROV1 ovarian
[21] = test system: A498 renal
[22] = test system: NCI-H522 lung
[23] = test system: NCI-H322M lung
[24] = test system: HL-60(TB) leukemia
[25] = test system: HS 578T breast
[26] = test system: HCT-15 colon
[27] = test system: SK-MEL-5 melanoma
[28] = test system: A549 NSCLC
[29] = test system: UACC-62 melanoma
[30] = test system: SF-539 CNS
[31] = test system: HCT-116 colon
[32] = test system: SK-MEL-28 melanoma
[33] = test system: 786-0 renal
[34] = test system: HT29 colon
[35] = test system: SNB-19 CNS
[36] = test system: RXF 393 renal
[37] = test system: PC-3 prostate
[38] = test system: NCI-H460 NSCLC
[39] = test system: HOP-62 NSCLC
[40] = test system: T-47D breast
[41] = test system: MDA-MB-468 breast
[42] = test system: MDA-MB-231 breast
[43] = test system: SF-295 CNS
[44] = test system: K-562 leukemia
[45] = test system: HCC-2998 colon
[46] = test system: SK-OV-3 ovarian
[47] = test system: MOLT-4 leukemia
[48] = test system: MCF7 breast
[49] = test system: COLO 205 colon
[50] = test system: DU-145 prostate
[51] = test system: UO-31 renal
[52] = test system: ACHN renal
[53] = test system: CCRF-CEM leukemia
[54] = test system: TK-10 renal
[55] = test system: OVCAR-8 ovarian
[56] = test system: OVCAR-4 ovarian
[57] = test system: NCI/ADR-RES ovarian

CC1(C)OCCn2c1nc1c(N3CCOCC3)nc(-c3cnc(N)nc3)nc12
GI50 [1]: 389 nM | TGI [1]: 5490 nM | GI50 [2]: 799 nM | TGI [2]: 5590 nM | GI50 [3]: 1230 nM | TGI [3]: > 100000 nM | GI50 [4]: 1830 nM | TGI [4]: > 100000 nM | GI50 [5]: 513 nM | TGI [5]: 7280 nM | GI50 [6]: 232 nM | TGI [6]: 2270 nM | GI50 [7]: 193 nM | TGI [7]: 667 nM | GI50 [8]: 556 nM | TGI [8]: 3440 nM | GI50 [9]: 348 nM | TGI [9]: 2900 nM | GI50 [10]: 834 nM | TGI [10]: > 100000 nM | GI50 [11]: 385 nM | TGI [11]: 2890 nM | GI50 [12]: 494 nM | TGI [12]: > 100000 nM | GI50 [13]: 279 nM | TGI [13]: 2740 nM | GI50 [14]: 2250 nM | TGI [14]: > 100000 nM | GI50 [15]: 519 nM | TGI [15]: 4100 nM | GI50 [16]: 1070 nM | TGI [16]: > 100000 nM | GI50 [17]: 161 nM | TGI [17]: 749 nM | GI50 [18]: 446 nM | TGI [18]: > 100000 nM | GI50 [19]: 1600 nM | TGI [19]: > 100000 nM | GI50 [20]: 158 nM | TGI [20]: 659 nM | GI50 [21]: 314 nM | TGI [21]: 2200 nM | GI50 [22]: 368 nM | TGI [22]: > 100000 nM | GI50 [23]: 458 nM | TGI [23]: 8700 nM | GI50 [24]: 153 nM | TGI [24]: 1910 nM | GI50 [25]: 275 nM | TGI [25]: 1350 nM | GI50 [26]: 432 nM | TGI [26]: > 100000 nM | GI50 [27]: 519 nM | TGI [27]: 2560 nM | GI50 [28]: 477 nM | TGI [28]: 6090 nM | GI50 [29]: 556 nM | TGI [29]: 2980 nM | GI50 [30]: 1040 nM | TGI [30]: > 100000 nM | GI50 [31]: 545 nM | TGI [31]: > 100000 nM | GI50 [32]: 418 nM | TGI [32]: 5420 nM | GI50 [33]: 1280 nM | TGI [33]: 9930 nM | GI50 [34]: 412 nM | TGI [34]: > 100000 nM | GI50 [35]: 5610 nM | TGI [35]: > 100000 nM | GI50 [36]: 758 nM | TGI [36]: 4420 nM | GI50 [37]: 306 nM | TGI [37]: 6920 nM | GI50 [38]: 199 nM | TGI [38]: > 100000 nM | GI50 [39]: 771 nM | TGI [39]: > 100000 nM | GI50 [40]: 128 nM | TGI [40]: 638 nM | GI50 [41]: 399 nM | TGI [41]: 1780 nM | GI50 [42]: 584 nM | TGI [42]: > 100000 nM | GI50 [43]: 316 nM | TGI [43]: 2020 nM | GI50 [44]: 1950 nM | TGI [44]: > 100000 nM | GI50 [45]: 885 nM | TGI [45]: > 100000 nM | GI50 [46]: 199 nM | TGI [46]: 1200 nM | GI50 [47]: 218 nM | TGI [47]: 1200 nM | GI50 [48]: 96.4 nM | TGI [48]: > 100000 nM | GI50 [49]: 378 nM | TGI [49]: 9220 nM | GI50 [50]: 527 nM | TGI [50]: 9150 nM | GI50 [51]: 416 nM | TGI [51]: > 100000 nM | GI50 [52]: 467 nM | TGI [52]: 6870 nM | GI50 [53]: 491 nM | TGI [53]: 7050 nM | GI50 [54]: 412 nM | TGI [54]: 3680 nM | GI50 [55]: 742 nM | TGI [55]: > 100000 nM | GI50 [56]: 1040 nM | TGI [56]: 5790 nM | GI50 [57]: 1770 nM | TGI [57]: > 100000 nM
